≈ marks a conversion by molar mass, not a printed value. Positions of bridges follow the written chain, without caps; N, C: chain ends. Non-standard residues stand in square brackets, D forms with d. Residues, ends and D or L forms follow the SMILES beside them. *: point of attachment. Ethyl(2-OPiv) = CC(C)(C)C(=O)OCC*; Dab = NCC[C@H](N)C(=O)O; X10 = CCC(C)CC(=O)OCC*; X7 = CC(C)CCC(=O)OCC*; X5 = CCC(C)C(=O)OCC*; X9 = CC(C)CC(=O)OCC*
How the values were obtained:
P. aeruginosa ATCC 27853 = format: cell-based, Pseudomonas aeruginosa; settings: ATCC 27853
Excerpt: (§1) All 81 compounds prepared in Examples 2 and 3 underwent screening against a panel of Gram-negative bacterium to assess their ability to inhibit bacterial growth. […] The median value is presented.

E. coli ATCC 25922 = format: cell-based, Escherichia coli; settings: ATCC 25922
Excerpt: as §1

A. baumannii ATCC 19606 = format: cell-based, Acinetobacter baumannii; settings: ATCC 19606
Excerpt: as §1

E. coli ATCC MS8345 = format: cell-based, Escherichia coli; settings: ATCC MS8345
Excerpt: as §1
Expansion of the polymyxin macrocycle by substituting […]) offered little advantage in antimicrobial activity but was generally well tolerated although for A. baumanni and P. aeruginosa this was detrimental.

[1] = tested on: K. pneumoniae ATCC MS6671; format: cell-based, Klebsiella pneumoniae; settings: ATCC MS6671
Excerpt: as §1

[2] = tested on: K. pneumoniae ATCC 700603; format: cell-based, Klebsiella pneumoniae; settings: ATCC 700603
Excerpt: as §1

K. pneumoniae ATCC 33495 = format: cell-based, Klebsiella pneumoniae; settings: ATCC 33495
Excerpt: as §1

SMILES	MIC P. aeruginosa ATCC 27853 (P. aeruginosa ATCC 27853)	MIC E. coli ATCC 25922 (E. coli ATCC 25922)	MIC A. baumannii ATCC 19606 (A. baumannii ATCC 19606)	MIC E. coli ATCC MS8345 (E. coli ATCC MS8345)	MIC K. pneumoniae ATCC MS6671 [1]	MIC K. pneumoniae ATCC 700603 [2]	MIC K. pneumoniae ATCC 33495 (K. pneumoniae ATCC 33495)
CC(C)C[C@@H]1NC(=O)[C@@H](Cc2ccccc2)NC(=O)[C@H](CCN)NC(=O)[C@@H](NC(=O)[C@H](CCN)NC(=O)[C@@H](NC(=O)[C@H](N)CSCCOC(=O)C(C)(C)C)[C@@H](C)O)CCNC(=O)[C@H]([C@@H](C)O)NC(=O)[C@H](CCN)NC(=O)[C@H](CCN)NC1=O [Compound 93] (H-[dC](Ethyl(2-OPiv))T[Dab][Dab][Dab][dF]L[Dab][Dab]T; lactam 4-C)	2 µg/mL (≈ 1.67 µM)	1 µg/mL (≈ 0.837 µM)	4 µg/mL (≈ 3.35 µM)	32 µg/mL (≈ 26.8 µM)	>32 µg/mL	2 µg/mL (≈ 1.67 µM)	1 µg/mL (≈ 0.837 µM)
CCC(C)C(=O)OCCSC[C@@H](N)C(=O)N[C@H](C(=O)N[C@@H](CCN)C(=O)N[C@H]1CCNC(=O)[C@H]([C@@H](C)O)NC(=O)[C@H](CCN)NC(=O)[C@H](CCN)NC(=O)[C@H](CC(C)C)NC(=O)[C@@H](Cc2ccccc2)NC(=O)[C@H](CCN)NC1=O)[C@@H](C)O (some centres unmarked) [Compound 95] (H-[dC](X5)T[Dab][Dab][Dab][dF]L[Dab][Dab]T; lactam 4-C)	1 µg/mL (≈ 0.837 µM)	1 µg/mL (≈ 0.837 µM)	4 µg/mL (≈ 3.35 µM)	16 µg/mL (≈ 13.4 µM)	>32 µg/mL	2 µg/mL (≈ 1.67 µM)	1 µg/mL (≈ 0.837 µM)
CC(C)CC(=O)OCCSC[C@@H](N)C(=O)N[C@H](C(=O)N[C@@H](CCN)C(=O)N[C@H]1CCNC(=O)[C@H]([C@@H](C)O)NC(=O)[C@H](CCN)NC(=O)[C@H](CCN)NC(=O)[C@H](CC(C)C)NC(=O)[C@@H](Cc2ccccc2)NC(=O)[C@H](CCN)NC1=O)[C@@H](C)O [Compound 96] (H-[dC](X9)T[Dab][Dab][Dab][dF]L[Dab][Dab]T; lactam 4-C)	1 µg/mL (≈ 0.837 µM)	0.25 µg/mL (≈ 0.209 µM)	4 µg/mL (≈ 3.35 µM)	16 µg/mL (≈ 13.4 µM)	>32 µg/mL	1 µg/mL (≈ 0.837 µM)	1 µg/mL (≈ 0.837 µM)

Next, values leading:

MIC P. aeruginosa ATCC 27853 (P. aeruginosa ATCC 27853)	MIC E. coli ATCC 25922 (E. coli ATCC 25922)	MIC A. baumannii ATCC 19606 (A. baumannii ATCC 19606)	MIC E. coli ATCC MS8345 (E. coli ATCC MS8345)	MIC K. pneumoniae ATCC MS6671 [1]	MIC K. pneumoniae ATCC 700603 [2]	MIC K. pneumoniae ATCC 33495 (K. pneumoniae ATCC 33495)	SMILES
2 µg/mL (≈ 1.65 µM)	1 µg/mL (≈ 0.827 µM)	4 µg/mL (≈ 3.31 µM)	16 µg/mL (≈ 13.2 µM)	>32 µg/mL	2 µg/mL (≈ 1.65 µM)	1 µg/mL (≈ 0.827 µM)	CCC(C)CC(=O)OCCSC[C@@H](N)C(=O)N[C@H](C(=O)N[C@@H](CCN)C(=O)N[C@H]1CCNC(=O)[C@H]([C@@H](C)O)NC(=O)[C@H](CCN)NC(=O)[C@H](CCN)NC(=O)[C@H](CC(C)C)NC(=O)[C@@H](Cc2ccccc2)NC(=O)[C@H](CCN)NC1=O)[C@@H](C)O (some centres unmarked) [Compound 97] (H-[dC](X10)T[Dab][Dab][Dab][dF]L[Dab][Dab]T; lactam 4-C)
1 µg/mL (≈ 0.827 µM)	0.5 µg/mL (≈ 0.414 µM)	2 µg/mL (≈ 1.65 µM)	4 µg/mL (≈ 3.31 µM)	>32 µg/mL	1 µg/mL (≈ 0.827 µM)	1 µg/mL (≈ 0.827 µM)	CC(C)CCC(=O)OCCSC[C@@H](N)C(=O)N[C@H](C(=O)N[C@@H](CCN)C(=O)N[C@H]1CCNC(=O)[C@H]([C@@H](C)O)NC(=O)[C@H](CCN)NC(=O)[C@H](CCN)NC(=O)[C@H](CC(C)C)NC(=O)[C@@H](Cc2ccccc2)NC(=O)[C@H](CCN)NC1=O)[C@@H](C)O [Compound 98] (H-[dC](X7)T[Dab][Dab][Dab][dF]L[Dab][Dab]T; lactam 4-C)
